Source: patent US8952024B2, “Herbicidal pyrimidone derivatives” (E I du Pont de Nemours and Company, priority 2009, dated 2015)

Experiments:
Experiment in all cases: Test B pre-/postemergence plant response
Assay type in all cases: in vivo
[1] = system: johnsongrass (Sorghum halepense)
Method in brief: (§1)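 Steps: sow seed in loam–sand soil and spray preemergence, or grow plants in peat-based medium to 1–4 leaves (2–18 cm) and spray postemergence; formulation is non-phytotoxic solvent plus surfactant; hold in greenhouse 13–15 days; score visually vs controls, 0 = no effect, 100 = complete control.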

[2] = system: goosegrass (Eleusine indica)
Method in brief: as §1

[3] = system: large crabgrass (Digitaria sanguinalis)
Method in brief: as §1

[4] = system: wheat (Triticum aestivum)
Method in brief: as §1

soybean (Glycine max) = system: soybean (Glycine max)
Method in brief: as §1

[5] = system: velvetleaf (Abutilon theophrasti)
Method in brief: as §1

[6] = system: woolly cupgrass (Eriochloa villosa)
Method in brief: as §1

[7] = system: green foxtail (Setaria viridis)
Method in brief: as §1

kochia (Kochia scoparia) = system: kochia (Kochia scoparia)
Method in brief: as §1

[8] = system: yellow nutsedge (Cyperus esculentus)
Method in brief: as §1

[9] = system: ragweed (common ragweed, Ambrosia elatior)
Method in brief: as §1

[10] = system: bermudagrass (Cynodon dactylon)
Method in brief: as §1

[11] = system: lambsquarters (Chenopodium album)
Method in brief: as §1

[12] = 31 g ai/ha, postemergence, scale 0 to 100, 0 is no effect, 100 is complete control
[13] = 250 g ai/ha, Preemergence, 0 to 100 scale
[14] = Postemergence, 62 g ai/ha, scale 0 (no effect) to 100 (complete control), 13 to 15 days
[15] = Postemergence, 125 g ai/ha, visual rating after 13 to 15 days, scale 0 (no effect) to 100 (complete control)
[16] = Postemergence, 250 g ai/ha, scale 0 to 100 (0 no effect, 100 complete control)
[17] = Preemergence, 31 g ai/ha, scale 0 to 100 (0 no effect, 100 complete control)
[18] = Preemergence, 62 g ai/ha, scale 0 to 100 (0 no effect, 100 complete control)
[19] = Preemergence, 125 g ai/ha, scale 0 to 100, 0 no effect, 100 complete control

O=C1CCCC(O)=C1C(=O)c1cnc(-c2ccsc2)n(-c2ccccc2)c1=O [Compound 56]
Plant response rating, Johnsongrass [1, 12]: 55 | Plant response rating, Johnsongrass [1, 13]: 80 | Plant response rating, Johnsongrass [1, 14]: 80 | Plant response rating, Johnsongrass [1, 15]: 85 | Plant response rating, Johnsongrass [1, 16]: 100 | Plant response rating, Johnsongrass [1, 17]: 10 | Plant response rating, Johnsongrass [1, 18]: 45 | Plant response rating, Johnsongrass [1, 19]: 55 | Plant response rating, Goosegrass [2, 12]: 65 | Plant response rating, Goosegrass [2, 13]: 100 | Plant response rating, Goosegrass [2, 14]: 75 | Plant response rating, Goosegrass [2, 15]: 75 | Plant response rating, Goosegrass [2, 16]: 90 | Plant response rating, Goosegrass [2, 17]: 90 | Plant response rating, Goosegrass [2, 18]: 95 | Plant response rating, Goosegrass [2, 19]: 95 | Plant response rating, Crabgrass, Large [3, 12]: 75 | Plant response rating, Crabgrass, Large [3, 13]: 98 | Plant response rating, Crabgrass, Large [3, 14]: 85 | Plant response rating, Crabgrass, Large [3, 15]: 90 | Plant response rating, Crabgrass, Large [3, 16]: 95 | Plant response rating, Crabgrass, Large [3, 17]: 80 | Plant response rating, Crabgrass, Large [3, 18]: 85 | Plant response rating, Crabgrass, Large [3, 19]: 98 | Plant response rating, Wheat [4, 12]: 0 | Plant response rating, Wheat [4, 14]: 0 | Plant response rating, Wheat [4, 15]: 0 | Plant response rating, Wheat [4, 16]: 0 | Plant response rating, Wheat [4, 17]: 0 | Plant response rating, Wheat [4, 18]: 0 | Plant response rating, Wheat [4, 19]: 0 | Plant response rating, Soybean (soybean (Glycine max); [12]): 85 | Plant response rating, Soybean (soybean (Glycine max); [14]): 85 | Plant response rating, Soybean (soybean (Glycine max); [15]): 95 | Plant response rating, Soybean (soybean (Glycine max); [16]): 98 | Plant response rating, Soybean (soybean (Glycine max); [17]): 20 | Plant response rating, Soybean (soybean (Glycine max); [19]): 80 | Plant response rating, Velvetleaf [5, 12]: 85 | Plant response rating, Velvetleaf [5, 14]: 90 | Plant response rating, Velvetleaf [5, 15]: 98 | Plant response rating, Velvetleaf [5, 16]: 98 | Plant response rating, Velvetleaf [5, 17]: 85 | Plant response rating, Velvetleaf [5, 18]: 90 | Plant response rating, Velvetleaf [5, 19]: 98 | Plant response rating, Cupgrass, Woolly [6, 12]: 15 | Plant response rating, Cupgrass, Woolly [6, 13]: 70 | Plant response rating, Cupgrass, Woolly [6, 14]: 45 | Plant response rating, Cupgrass, Woolly [6, 15]: 65 | Plant response rating, Cupgrass, Woolly [6, 16]: 85 | Plant response rating, Cupgrass, Woolly [6, 17]: 0 | Plant response rating, Cupgrass, Woolly [6, 18]: 20 | Plant response rating, Cupgrass, Woolly [6, 19]: 50 | Plant response rating, Foxtail, Green [7, 12]: 80 | Plant response rating, Foxtail, Green [7, 13]: 100 | Plant response rating, Foxtail, Green [7, 14]: 85 | Plant response rating, Foxtail, Green [7, 15]: 98 | Plant response rating, Foxtail, Green [7, 16]: 100 | Plant response rating, Foxtail, Green [7, 17]: 0 | Plant response rating, Foxtail, Green [7, 18]: 20 | Plant response rating, Foxtail, Green [7, 19]: 20 | Plant response rating, Kochia (kochia (Kochia scoparia); [12]): 90 | Plant response rating, Kochia (kochia (Kochia scoparia); [14]): 95 | Plant response rating, Kochia (kochia (Kochia scoparia); [15]): 100 | Plant response rating, Kochia (kochia (Kochia scoparia); [16]): 100 | Plant response rating, Nutsedge, Yellow [8, 12]: 20 | Plant response rating, Nutsedge, Yellow [8, 14]: 70 | Plant response rating, Nutsedge, Yellow [8, 15]: 75 | Plant response rating, Nutsedge, Yellow [8, 16]: 75 | Plant response rating, Nutsedge, Yellow [8, 17]: 20 | Plant response rating, Nutsedge, Yellow [8, 18]: 80 | Plant response rating, Nutsedge, Yellow [8, 19]: 85 | Plant response rating, Ragweed [9, 12]: 55 | Plant response rating, Ragweed [9, 14]: 55 | Plant response rating, Ragweed [9, 15]: 75 | Plant response rating, Ragweed [9, 16]: 75 | Plant response rating, Ragweed [9, 17]: 20 | Plant response rating, Ragweed [9, 18]: 65 | Plant response rating, Ragweed [9, 19]: 70 | Plant response rating, Bermudagrass [10, 12]: 75 | Plant response rating, Bermudagrass [10, 13]: 100 | Plant response rating, Bermudagrass [10, 14]: 85 | Plant response rating, Bermudagrass [10, 15]: 100 | Plant response rating, Bermudagrass [10, 16]: 100 | Plant response rating, Bermudagrass [10, 17]: 98 | Plant response rating, Bermudagrass [10, 18]: 100 | Plant response rating, Bermudagrass [10, 19]: 100 | Plant response rating, Lambsquarters [11, 12]: 98 | Plant response rating, Lambsquarters [11, 13]: 98 | Plant response rating, Lambsquarters [11, 14]: 98 | Plant response rating, Lambsquarters [11, 15]: 100 | Plant response rating, Lambsquarters [11, 16]: 100 | Plant response rating, Lambsquarters [11, 17]: 95 | Plant response rating, Lambsquarters [11, 18]: 98 | Plant response rating, Lambsquarters [11, 19]: 98

O=C1CCCC(O)=C1C(=O)c1cnc(-c2ccccc2)n(CC2CCCO2)c1=O (stereo not drawn) [Compound 59]
Plant response rating, Johnsongrass [1, 13]: 90 | Plant response rating, Johnsongrass [1, 14]: 75 | Plant response rating, Johnsongrass [1, 15]: 100 | Plant response rating, Johnsongrass [1, 16]: 100 | Plant response rating, Johnsongrass [1, 19]: 80 | Plant response rating, Goosegrass [2, 12]: 75 | Plant response rating, Goosegrass [2, 13]: 100 | Plant response rating, Goosegrass [2, 14]: 80 | Plant response rating, Goosegrass [2, 15]: 95 | Plant response rating, Goosegrass [2, 16]: 95 | Plant response rating, Goosegrass [2, 17]: 98 | Plant response rating, Goosegrass [2, 18]: 98 | Plant response rating, Goosegrass [2, 19]: 100 | Plant response rating, Crabgrass, Large [3, 12]: 80 | Plant response rating, Crabgrass, Large [3, 13]: 98 | Plant response rating, Crabgrass, Large [3, 14]: 85 | Plant response rating, Crabgrass, Large [3, 15]: 95 | Plant response rating, Crabgrass, Large [3, 16]: 100 | Plant response rating, Crabgrass, Large [3, 17]: 55 | Plant response rating, Crabgrass, Large [3, 18]: 95 | Plant response rating, Crabgrass, Large [3, 19]: 98 | Plant response rating, Wheat [4, 12]: 0 | Plant response rating, Wheat [4, 14]: 5 | Plant response rating, Wheat [4, 15]: 10 | Plant response rating, Wheat [4, 16]: 60 | Plant response rating, Wheat [4, 17]: 0 | Plant response rating, Wheat [4, 18]: 0 | Plant response rating, Wheat [4, 19]: 0 | Plant response rating, Soybean (soybean (Glycine max); [12]): 90 | Plant response rating, Soybean (soybean (Glycine max); [14]): 95 | Plant response rating, Soybean (soybean (Glycine max); [15]): 95 | Plant response rating, Soybean (soybean (Glycine max); [16]): 95 | Plant response rating, Soybean (soybean (Glycine max); [18]): 0 | Plant response rating, Soybean (soybean (Glycine max); [19]): 0 | Plant response rating, Velvetleaf [5, 12]: 85 | Plant response rating, Velvetleaf [5, 14]: 90 | Plant response rating, Velvetleaf [5, 15]: 95 | Plant response rating, Velvetleaf [5, 16]: 98 | Plant response rating, Velvetleaf [5, 17]: 75 | Plant response rating, Velvetleaf [5, 18]: 90 | Plant response rating, Velvetleaf [5, 19]: 100 | Plant response rating, Cupgrass, Woolly [6, 12]: 75 | Plant response rating, Cupgrass, Woolly [6, 13]: 85 | Plant response rating, Cupgrass, Woolly [6, 14]: 75 | Plant response rating, Cupgrass, Woolly [6, 15]: 90 | Plant response rating, Cupgrass, Woolly [6, 16]: 95 | Plant response rating, Cupgrass, Woolly [6, 17]: 10 | Plant response rating, Cupgrass, Woolly [6, 18]: 65 | Plant response rating, Cupgrass, Woolly [6, 19]: 65 | Plant response rating, Foxtail, Green [7, 12]: 50 | Plant response rating, Foxtail, Green [7, 13]: 98 | Plant response rating, Foxtail, Green [7, 14]: 70 | Plant response rating, Foxtail, Green [7, 15]: 70 | Plant response rating, Foxtail, Green [7, 16]: 70 | Plant response rating, Foxtail, Green [7, 18]: 70 | Plant response rating, Foxtail, Green [7, 19]: 90 | Plant response rating, Kochia (kochia (Kochia scoparia); [13]): 98 | Plant response rating, Kochia (kochia (Kochia scoparia); [14]): 10 | Plant response rating, Kochia (kochia (Kochia scoparia); [15]): 45 | Plant response rating, Kochia (kochia (Kochia scoparia); [16]): 75 | Plant response rating, Kochia (kochia (Kochia scoparia); [17]): 0 | Plant response rating, Kochia (kochia (Kochia scoparia); [18]): 45 | Plant response rating, Kochia (kochia (Kochia scoparia); [19]): 60 | Plant response rating, Nutsedge, Yellow [8, 12]: 45 | Plant response rating, Nutsedge, Yellow [8, 14]: 60 | Plant response rating, Nutsedge, Yellow [8, 15]: 70 | Plant response rating, Nutsedge, Yellow [8, 16]: 75 | Plant response rating, Nutsedge, Yellow [8, 17]: 55 | Plant response rating, Nutsedge, Yellow [8, 18]: 65 | Plant response rating, Nutsedge, Yellow [8, 19]: 85 | Plant response rating, Ragweed [9, 12]: 75 | Plant response rating, Ragweed [9, 14]: 80 | Plant response rating, Ragweed [9, 15]: 90 | Plant response rating, Ragweed [9, 16]: 95 | Plant response rating, Ragweed [9, 17]: 75 | Plant response rating, Ragweed [9, 18]: 90 | Plant response rating, Ragweed [9, 19]: 90 | Plant response rating, Bermudagrass [10, 13]: 98 | Plant response rating, Bermudagrass [10, 14]: 90 | Plant response rating, Bermudagrass [10, 15]: 98 | Plant response rating, Bermudagrass [10, 16]: 100 | Plant response rating, Bermudagrass [10, 17]: 10 | Plant response rating, Bermudagrass [10, 18]: 98 | Plant response rating, Bermudagrass [10, 19]: 98 | Plant response rating, Lambsquarters [11, 12]: 95 | Plant response rating, Lambsquarters [11, 13]: 100 | Plant response rating, Lambsquarters [11, 14]: 98 | Plant response rating, Lambsquarters [11, 15]: 100 | Plant response rating, Lambsquarters [11, 16]: 100 | Plant response rating, Lambsquarters [11, 17]: 98 | Plant response rating, Lambsquarters [11, 18]: 100 | Plant response rating, Lambsquarters [11, 19]: 100
